Reference: publication PMC7996328, “Design, Synthesis, and Biological Evaluation of a Series of 5- and 7-Hydroxycoumarin Derivatives as 5-HT1A Serotonin Receptor Antagonists” (Pharmaceuticals, 2021)
Where two headings read alike, the source gives them in different places.

Experiments:
[1] = Solubility under experimental conditions of the 5-HT1A assay; format: physicochemical; details: reason for not testing in 5-HT1A assay
Experimental: Compounds were dissolved in 9.5% DMSO and 0.5% Kolliphor® EL (Sigma Aldrich, Taufkirchen, Germany). Serial dilutions of the compounds tested (10^−10–10^−5 M) were incubated in triplicate with 0.8 nM [^35S]GTPγS in assay buffer (50 mM Tris-HCl, pH = 7.4, 1 mM EGTA, 3 mM MgCl2, 100 mM NaCl, 30 µM GDP) and 8-OH-DPAT (final concentration 1.4 × 10^−7 M) in the final assay volume of 250 µL. Hippocampal homogenates (15 μg/mL) were added to each tube as the 5-HT1A receptor source. The final DMSO and Kolliphor® EL concentrations were 0.95% and 0.05%, respectively. Non-specific binding was determined with 10 µM of unlabeled GTPγS. The reaction mixture was incubated for 90 min at 37 °C in a volume of 250 µL. Next, 96-well Unifilter® Plates (Perkin Elmer, Waltham, MA, USA) were presoaked for 1 h with 50 mM Tris-HCl (pH = 7.4) before harvesting. The reaction was terminated by vacuum filtration onto filter plates with the FilterMate Harvester® (Perkin Elmer, Waltham, MA, USA). The samples were then rapidly washed with 2 mL of 50 mM Tris-HCl (pH = 7.4) buffer. Filter plates were dried for 2 h at 50 °C. After drying, 45 µL of EcoScint-20 scintillant (Perkin Elmer) was added to every well. Radioactivity was counted in a Trilux MicroBeta^2 counter (Perkin Elmer). Data were analyzed with GraphPad Prism 5.0 software (GraphPad Software, San Diego, CA, USA, www.graphpad.com). Curves were fitted with a one-site non-linear regression model. Efficacy (Emax) and half maximal inhibitory concentration (IC50) were calculated from the Cheng–Prusoff equation and expressed as means ± SEM.

5-HT2A receptor = biological target: T1, 5-HT2A receptor (Rattus norvegicus, UniProt P14842); test: 5-HT2A competition binding assay, [3H]ketanserin, frontal cortex homogenates; details: [3H]ketanserin 1 nM, read-out: Ki (nM ± SEM) (converted)
T1 construct: from tissue; host or cells: rat frontal cortex (male SD), membrane homogenate
T1 sequence (P14842 whole entry): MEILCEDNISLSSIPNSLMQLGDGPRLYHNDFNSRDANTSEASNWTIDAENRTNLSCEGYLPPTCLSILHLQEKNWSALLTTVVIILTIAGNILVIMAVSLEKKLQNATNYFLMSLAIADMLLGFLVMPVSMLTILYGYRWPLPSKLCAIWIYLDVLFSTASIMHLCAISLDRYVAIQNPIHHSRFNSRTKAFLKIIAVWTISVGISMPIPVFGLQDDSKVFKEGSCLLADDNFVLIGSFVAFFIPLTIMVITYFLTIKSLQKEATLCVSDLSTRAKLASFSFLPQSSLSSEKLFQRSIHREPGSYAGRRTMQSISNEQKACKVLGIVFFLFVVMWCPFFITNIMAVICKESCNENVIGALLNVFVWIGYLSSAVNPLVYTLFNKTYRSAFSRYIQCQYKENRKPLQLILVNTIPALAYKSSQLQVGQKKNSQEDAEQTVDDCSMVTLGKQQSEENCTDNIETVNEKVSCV

5-HT1A receptor [2] = biological target: T2, 5-HT1A receptor (Rattus norvegicus, UniProt P19327); test: G-protein enhancing (agonist) effect at the 5-HT1A receptor; format: biochemical
T2 construct: Hippocampal homogenates (15 μg/mL) were added to each tube as the 5-HT1A receptor source; from tissue; host or cells: rat hippocampus (male Sprague-Dawley), membrane homogenate
T2 sequence (P19327 1-422): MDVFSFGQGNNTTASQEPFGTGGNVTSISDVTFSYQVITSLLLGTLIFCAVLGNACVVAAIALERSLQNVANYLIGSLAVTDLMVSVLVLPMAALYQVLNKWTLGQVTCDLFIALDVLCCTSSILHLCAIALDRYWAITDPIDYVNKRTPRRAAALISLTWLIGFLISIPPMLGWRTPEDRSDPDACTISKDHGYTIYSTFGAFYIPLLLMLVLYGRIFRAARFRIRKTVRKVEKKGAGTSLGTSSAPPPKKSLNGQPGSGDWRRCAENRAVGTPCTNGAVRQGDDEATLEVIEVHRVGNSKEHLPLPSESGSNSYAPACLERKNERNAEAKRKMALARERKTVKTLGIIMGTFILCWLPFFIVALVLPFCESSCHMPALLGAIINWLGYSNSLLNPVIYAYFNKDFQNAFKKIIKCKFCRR

5-HT1A receptor [3] = details: previously synthesized coumarins derivatives, Figure 1; read-out: Ki, 5-HT1A receptor affinity; cited from earlier work
[4] = G-protein enhancing effect, 5-HT1A

Row | SMILES | melting point [°C] | solubility under experimental conditions [1] | Ki (5-HT1A receptor [3]) [nM] | other results
1 | Cc1ccc(C)c(N2CCN(CCCCCOc3cc(C)cc4oc(=O)cc(C)c34)CC2)c1 [Compound 1d, 5-(5-(4-(2,5-dimethylphenyl)piperazin-1-yl)pentyloxy)-4,7-dimethyl-2H-chromen-2-one] | 132 to 134 | very poor solubility |  | 
2 | Cc1cc(OCCCCCN2CCN(c3cccc(Br)c3)CC2)c2c(C)cc(=O)oc2c1 [Compound 1g, 5-(5-(4-(3-bromophenyl)piperazin-1-yl)pentyloxy)-4,7-dimethyl-2H-chromen-2-one] | 107 to 109 | very poor solubility |  | 
3 | Cc1cc(OCCN2CCN(c3cccc(Br)c3)CC2)c2c(C)cc(=O)oc2c1 [Compound 2g, 5-(4-(4-(3-bromophenyl)piperazin-1-yl)ethoxy)-4,7-dimethyl-2H-chromen-2-one] | 126 to 127 |  |  | Ki (5-HT2A receptor): 3540 nM; Emax (5-HT1A receptor [2]; [4]): 118 ± 6.5%; Emax (% ± SEM) (5-HT1A receptor [2]; [4]): 113 ± 6.5%; EC50 (5-HT1A receptor [2]; G-protein enhancing effect, 5-HT1A, read-out: EC50 (nM ± SEM)): 5080 ± 2640 nM; EC50 (5-HT1A receptor [2]; G-protein enhancing effect, 5-HT1A, read-out: pEC50 (converted)): 6310 nM; functional character at the 5-HT1A receptor (5-HT1A receptor [2]; in words): weak partial agonists
4 | CC(=O)c1c(C)cc2oc(=O)cc(C)c2c1OCCCCCN1CCN(c2ccccc2C#N)CC1 [Compound 3j, 6-acetyl-5-(5-(4-(2-cyanophenyl)piperazin-1-yl)pentyloxy)-4,7-dimethyl-2H-chromen-2-one] | 116 to 118 | very poor solubility |  | 
5 | CC(=O)c1c(OCCN2CCN(c3cccc(Br)c3)CC2)ccc2c(C)cc(=O)oc12 [Compound 6g, 8-acetyl-7-(2-[4-(3-bromohenyl)piperazin-1-yl]ethoxy)-4-methylchromen-2-one] | 110 to 112 | very poor solubility |  | Ki (5-HT2A receptor): 1490 ± 466 nM
6 | Cc1cc(OCCCN2CCN(c3ccccc3F)CC2)c2c(C)cc(=O)oc2c1 [IIa] |  |  | 1.7 ± 0.005 | 
7 | Cc1cc(OCCCCN2CCN(c3ccccc3F)CC2)c2c(C)cc(=O)oc2c1 [IIb] |  |  | 3 ± 0.1 | 
8 | Cc1cc(OCCCN2CCN(c3cccc(Cl)c3Cl)CC2)c2c(C)cc(=O)oc2c1 [IIc] |  |  | 8 ± 0.04 | 
9 | Cc1cc(OCCCCN2CCN(c3cccc(Cl)c3Cl)CC2)c2c(C)cc(=O)oc2c1 [IId] |  |  | 4 ± 0.8 | 
10 | Cc1cc(OCCCN2CCN(c3ccccc3C#N)CC2)c2c(C)cc(=O)oc2c1 [IIe] |  |  | 1.5 ± 0.2 | 
11 | Cc1cc(OCCCCN2CCN(c3ccccc3C#N)CC2)c2c(C)cc(=O)oc2c1 [IIf] |  |  | 3 ± 0.2 | 
